Consider 1 substance from publication PMC10518340, “Secreted LRPAP1 binds and triggers IFNAR1 degradation to facilitate virus evasion from cellular innate immunity” (Signal Transduction and Targeted Therapy, 2023).

In one assay the test system is EV71. Description: EV71 infection of RD cells (viral RNA, titer, viral protein, CPE). The settings on record: RD cells, 9 h; plasmid, recombinant protein or peptide pre-treatment; viral RNA / titer.
Assay [1] deals with IFNAR1. Nature of the assay: IFNAR1 protein level, HepAD38 cells, immunoblot. The note with it: siRNA or overexpression 48 h; LF 400 nM 24 h. The class given is cell-based.
Assay [2] relates to type I IFN signaling pathway. Description: Interferon-stimulated gene (ISG) mRNA levels, RD cells. The format is cell-based. The settings on record: excessive LRPAP1 expression.
The test system of a further assay is HBV. Nature of the assay: HBV level in HepAD38 cells, immunoblot. The class given is cell-based. The note with it: HepAD38, siRNA or overexpression 48 h. (In general: A western blot detects proteins with antibodies after separation by electrophoresis.)
For assay [3], the system named is extracellular domain of IFNAR1. Description: Pull-down / co-immunoprecipitation of LRPAP1 with IFNAR1. The class given is binding. The note with it: HEK-293T cells ectopic-expressing LRPAP1 and IFNAR1; also mouse cerebrum. Here is the method: (§1) The interaction of LRPAP1, LRP1 and IFNAR1 was examined by immunoprecipitation using a protocol described as followed. HEK293T cells were cultured at around 90% confluence in a 100 mm tissue culture dish. Cells were washed with 10 ml of PBS and harvested in 0.5 ml of ice-cold lysis buffer ([…], pH 7.4, 1% SDS, 1% NP-40) and Protease Cocktail (Roche) and PhoSTOP (Roche). The total extract was pre-cleared with 10 μg normal rabbit IgG (Cell signaling, 2729 S) and 20 μl of protein A/G plus-agarose (Santa Cruz Biotechnology) at 4 °C on a rotor for 1 h. After gently removed protein A/G agarose beads by centrifugation at 500 rcf for 2 min, 0.2 mg of total extract was immunoprecipitated with the indicated antibodies overnight at 4 °C on a rotor. Approximately 20 μl of protein A/G plus-agarose (Santa Cruz Biotechnology) was added at 4 °C for one hour. Then, the beads were washed three times with washing buffer (lysis buffer contained 0.1% NP-40). The pellet was suspended with 40 μl PBS and 10 μl of 5× SDS-PAGE loading buffer and the samples were boiled for 10 min.
The interaction of LRPAP1, LRP1 and IFNAR1 was examined by immunoprecipitation using a protocol described as followed. HEK293T cells were cultured at around 90% confluence in a 100 mm tissue culture dish. […]

In the next assay the test system is HSV-1. Description: HSV-1 infection of RD cells (viral DNA, TCID50, viral protein, CPE).
The test system of another assay is HCoV-OC43. Nature of the assay: HCoV-OC43 infection of RD cells (viral RNA, TCID50, CPE). The note with it: antibody 0.5 μg/ml; peptides 1 μM or rLRPAP1 200 nM pre-treatment 1 h, 72 h; siRNA 24 h then MOI 1, 72 h.
For the next assay, the system named is 2A^pro. Description: MST binding to recombinant 2A protease (baits r2A and 2Am; MS and MST). The note with it: recombinant 2A^pro (r2A) and 2A^C110A (2Am) as baits. More on the design: species or system EV71. As for the experimental part: (§2) The polyhistidine (His)-tag peptides, the recombinant 2A, the recombinant 2Am, and ECD-IFNAR1, were incubated with the RED-tris-NTA 2nd Generation dye (Cat#MO-L018, Nanotemper-Technologies) for 30 min, respectively. Then these fluorescently labeled peptides were mixed with the serial diluted ligands, including the scramble peptide, the commercial penetrating peptide (RV5), LRPAP1 peptides (RAPD1P1, RAPD1P2), or rLRPAP1 without His-tag, respectively. The mixtures were captured by Monolith^TM NT.115 Series capillaries (Cat# MO-K022). Capillaries were then subjected to Monolith NT for MST analysis. According to Monolith guidelines, signal-to-noise (S/N) ratios greater than 5.0 were indicated as the valid binding.
as §2, with “NT. For” for “NT for”, “According to Monolith guidelines, signal-to-noise (S/N) ratios greater than 5.0 were indicated as the valid binding.” left out

In assay [4] the test system is IFNAR1. Description: IFNAR1 ubiquitination, immunoprecipitation, HEK-293T cells. The format is cell-based, human. The settings on record: ubiquitin, LRPAP1 and IFNAR1 overexpressed. Here is the method:
as §1

Assay [5] concerns IFNAR1. Description: IFNAR1 protein level, immunoblot, HEK-293T cells. The format is cell-based, human.

For the substance “LDL-receptor-related protein-associated protein 1 [LRPAP1]”, the EV71 infection entry in the assay on EV71 is recorded as “strikingly promoted EV71 infection”. In the assay on IFNAR1 [1], the “IFNAR1 expression in HepAD38 cells” value is recorded as “decreased level of IFNAR1”. In addition, the “type I IFN signaling pathway” value in assay [2] is “suppressing the type I IFN signaling pathway and the expression of downstream interferon-stimulated genes”. The HBV level result with HBV is “higher HBV loads”. The “interaction of LRPAP1 and IFNAR1 (co-immunoprecipitation)” value in [3] was “confirmed the interaction of LRPAP1 and IFNAR1”. For the same substance, the “HSV-1 CPE” value with HSV-1 (peptides 1 μM or rLRPAP1 200 nM pre-treatment 1 h, 24 h) is recorded as “more obvious cytopathic effect”. Also, in the assay with HSV-1 (pre-treated 1 h, MOI 10, 24 h, RT-qPCR), the “HSV-1 DNA replication” value is “promoted the DNA replication of HSV-1”. The “HCoV-OC43 CPE” value with HCoV-OC43 is given as “more obvious cytopathic effects”. Also, in the assay with 2A^pro, the “interaction with 2A^pro” value is recorded as “interacts with 2A^pro”. Further, in the assay with IFNAR1 [4], the IFNAR1 ubiquitination entry is “dramatically increased IFNAR1 ubiquitination”. For the same substance, the “IFNAR1 level on simultaneous expression of LRPAP1 and 2A^pro” value in the assay with IFNAR1 [5] (co-expressed with 2A^pro) was “complete undetectability of IFNAR1 levels”. Also, the IFNAR1 level result in the assay on IFNAR1 [5] (transfected cells (ectopic expression or siRNA)) is recorded as “decreasing IFNAR1 to a marginal detectable level”.
